In patent US9902709B2, “Polysubstituted pyridine compound, preparation method, use and pharmaceutical composition” (PEKING UNIVERSITY FOUNDER GROUP CO., LTD., priority 2014, dated 2018):

What was measured:
[1] = biological target: VEGFR2 (Homo sapiens (Human), UniProt P35968); assay: Inhibitory activity of VEGFR2 kinase (HTRF KinEASE-TK kit); assay type: biochemical
Protocol: HTRF®KinEASE™-TK kit (Cat.62TKOPEC, Cisbio);
VEGFR2 (Cat: k2643, Sigma);
2.1 Preparation of VEGFR2 Kinase Reagent
1× kinase buffer: 1 mL 1× kinase buffer contained 200 μL 5× kinase buffer (Invitrogen), 5 μL, 1M MgCl2, 1 μL 1M DTT, 1 μL 1M MnCl2, and 793 μL ddH2O;
5×TK substrate-biotin and ATP working fluid: as the concentrations of TK substrate-biotin and ATP, please refer to Table 1. TK substrate-biotin and ATP were diluted with 1× kinase buffer to 5 folds of the reaction concentrations;
5× kinase working fluid: as the concentration of VEGFR2 kinase, please refer to Table 1. 5× kinase working fluid was prepared with 1× Kinase buffer;
4× Sa-XL665 working fluid: as the concentration of Sa-XL665 (Cisbio) in the reaction, please refer to Table 1. The 4× Sa-XL665 working fluid was prepared with assay buffer (Cisbio);
4×TK Ab-cryptate working fluid: TK Ab-Cryptate (Cisbio) was 100-fold diluted with assay buffer (Cisbio), as working fluid;
Experimental Procedure of HTRF KinEASE TK Kit
After all the reagents were prepared as described above, the reagents except for enzymes were equilibrated to room temperature, then adding samples were performed.
TK substrate-biotin, ATP, VEGFR2 kinase and a compound at a certain concentration were reacted in 1× kinase buffer at room temperature for 20 minutes. […] To all the reaction wells, 5 μl 4× Sa-XL665 working fluid and 5 μl 4×TK Ab-cryptate working fluid were added. After reacting at room temperature for 1 hours, fluorescence signal (excited at 320 nm, emitted at 665 nm, 615 nm) was detected by ENVISION detector (Perkinelmer). Based on the full-active well and the background signal well, the inhibition rate for each well was calculated, and the average value was used for duplicate wells. The half maximal inhibitory concentration (IC50) for each test compound was fitted by professional software Graphpad PRISM 5.0.
2.3 Data Analysis Emission light ratio (ER)=665 nm emission signal/615 nm emission signal Inhibition rate=(ERpositive−ERsample)/(ERpositive−ERnegative)*100%
HTRF KinEASE TK kit was used to determine the IC50 value of a compound for kinase VEGFR2. The final concentration of the compound started from 100 μM, and 4-fold gradient dilution was carried out to provide 10 concentrations. Duplicate wells were used for each concentration. The final concentration of DMSO was controlled to 1% in the reaction system.

[2] = test system: SK-OV-3 human ovarian cancer cell strain; assay: In vitro anti-proliferation of tumor cells (CCK-8), SK-OV-3; assay type: cell-based; settings: SK-OV-3, 72 hours
Protocol: (§1) Experimental Example 2: Determination of the Compounds According to the Present Invention for IC50 of the In Vitro Anti-Proliferation of Tumor Cells
SK-OV-3 human ovarian cancer cell strain (purchased from Shanghai Institute of Cell Biology, Chinese Academy of Sciences);
(§2) Preparation of a compound: the compound was diluted with DMSO to a final concentration of 10 mM.
(§3) a) Cells in logarithmic growth phase were collected, counted, and re-suspended in complete medium. The concentration of cells was adjusted to a suitable concentration (determined depending on the result of optimization experiment of cell density), and the cells were seeded to a 96-well plate at 100 μl cell suspension per well. The cells were incubated in an incubator at 37° C., 100% relative humidity, 5% CO2 for 24 hours.
(§4) b) A test compound was diluted with the culture medium to 500 μM, and then gradient dilution was performed for 8 times. Cells were added at 25 μl/well. The final concentrations of the compound was in a range from 100 μM and 0 μM, 4-fold diluted, including 10 concentrations.
(§5) c) The cells were incubated in an incubator at 37° C., 100% relative humidity, 5% CO2 for 72 hours.
(§6) d) The culture medium was withdraw and discarded, the complete medium containing 10% CCK-8 was added, and then the cells were incubated in an incubator at 37° C. for 2-4 hours.
(§7) IC50 curve was fitted and IC50 value was calculated by professional software GraphPad Prism 5.0.
(§8) In the experiment, the compounds according to the present invention were determined for their IC50 values of in vitro anti-proliferation of tumor cell strains. The final concentrations of the compounds was in a range from 100 μM and 0 μM, 4-fold diluted, including 10 concentrations.

[3] = test system: A498 human renal carcinoma cell strain; assay: In vitro anti-proliferation of tumor cells (CCK-8), A498; assay type: cell-based; settings: A498, 72 hours
Protocol: as §1
A498 human renal carcinoma cell strain (purchased from Shanghai Institute of Cell Biology, Chinese Academy of Sciences);
as §2, §3, §4, §5, §6, §7, §8

[4] = test system: HCT116 human colon cancer cell strain; assay: In vitro anti-proliferation of tumor cells (CCK-8), HCT-116; assay type: cell-based; settings: HCT-116, 72 hours
Protocol: as §1
HCT116 human colon cancer cell strain (purchased from Shanghai Institute of Cell Biology, Chinese Academy of Sciences);
as §2, §3, §4, §5, §6, §7, §8

[5] = test system: 786-O human renal clear cell carcinoma cell strain; assay: In vitro anti-proliferation of tumor cells (CCK-8), 786-O; assay type: cell-based; settings: 786-0, 72 hours
Protocol: as §1
786-O human renal clear cell carcinoma cell strain (purchased from Shanghai Institute of Cell Biology, Chinese Academy of Sciences);
as §2, §3, §4, §5, §6, §7, §8

[6] = test system: MDA-MB-231 human mammary cancer cell strain; assay: In vitro anti-proliferation of tumor cells (CCK-8), MDA-MB-231; assay type: cell-based
Protocol: as §1
MDA-MB-231 human mammary cancer cell strain (purchased from Shanghai Institute of Cell Biology, Chinese Academy of Sciences);
as §2, §3, §4, §5, §6, §7, §8

[7] = Pharmacokinetics in mice; assay type: in vivo; settings: female, plasma, CD-1 mouse
Protocol: Administration route: intravenous injection (IV); per os (PO).
Fasting condition: free access to water, no fasting.
The mice were weighed before administration, and the administration volume was calculated based on their body weights (IV group: 4 mL/kg; PO group: 10 mL/kg).
Administration route and dose: Intravenous (IV) group: 1 mg/kg; Oral (PO) group: 5 mg/kg.
Animal grouping: 3 mice/group, an IV group and a PO group for each test compound.
After administration, 30 μL whole blood was collected from rim of the eyes of mice in the IV group at each pre-determined time point (5 min, 15 min, 30 min, 1 h, 2 h, 4 h, 8 h, 24 h), and 30 μL whole blood was collected from rim of the eyes of mice in the PO group at each pre-determined time point (15 min, 30 min, 1 h, 2 h, 4 h, 8 h, 24 h). The whole blood was centrifuged (6,000 rpm, 5 min) to get blood plasma. All the blood plasma samples were stored in a refrigerator of −80° C. for further analysis.
Conditions of LC/MS/MS was as follows:
Pharmacokinetic parameters were estimated according to non-compartment model (calculated by WinNonlin software): […]
IV paramater: t1/2 (hr); C0 (ng/mL); AUClast (hr*ng/mL); AUCInf (hr*ng/mL); AUC Extr (%); Vz (L/kg); Vss (L/kg); CL (mL/min/kg); MRT (hr).
PO parameter: t1/2 (hr); tmax (hr); Cmax (ng/mL); AUClast (hr*ng/mL); AUCInf (hr*ng/mL); AUC Extr (%); MRT (hr); AUC/D (hr*mg/mL); F (%).

[8] = test system: HepG2 human liver cancer cell strain; assay: In vitro anti-proliferation of tumor cells (CCK-8), HepG2; assay type: cell-based; settings: HepG2, 72 hours
Protocol: as §1
HepG2 human liver cancer cell strain (purchased from Shanghai Institute of Cell Biology, Chinese Academy of Sciences);
as §2, §3, §4, §5, §6, §7, §8

[9] = test system: HL-60 human acute myeloid leukemia cell strain; assay: In vitro anti-proliferation of tumor cells (CCK-8), HL-60; assay type: cell-based; settings: HL-60, 72 hours
Protocol: as §1
HL-60 human acute myeloid leukemia cell strain (purchased from Shanghai Institute of Cell Biology, Chinese Academy of Sciences);
as §2, §3, §4, §5, §6, §7, §8

[10] = test system: MiaPaCa-2 human pancreatic cancer cell strain; assay: In vitro anti-proliferation of tumor cells (CCK-8), MiaPaCa-2; assay type: cell-based; settings: MIA PaCa-2, MiaPaCa-2, 72 hours
Protocol: as §1
MiaPaCa-2 human pancreatic cancer cell strain (purchased from American ATCC);
as §2, §3, §4, §5, §6, §7, §8

[11] = test system: NCI-H460 Human large cell lung cancer cell strain; assay: In vitro anti-proliferation of tumor cells (CCK-8), NCI-H460; assay type: cell-based; settings: NCI-H460, 72 hours
Protocol: as §1
NCI-H460 Human large cell lung cancer cell strain (purchased from Shanghai Institute of Cell Biology, Chinese Academy of Sciences);
as §2, §3, §4, §5, §6, §7, §8

VEGFR2, sequence (P35968 20-1356): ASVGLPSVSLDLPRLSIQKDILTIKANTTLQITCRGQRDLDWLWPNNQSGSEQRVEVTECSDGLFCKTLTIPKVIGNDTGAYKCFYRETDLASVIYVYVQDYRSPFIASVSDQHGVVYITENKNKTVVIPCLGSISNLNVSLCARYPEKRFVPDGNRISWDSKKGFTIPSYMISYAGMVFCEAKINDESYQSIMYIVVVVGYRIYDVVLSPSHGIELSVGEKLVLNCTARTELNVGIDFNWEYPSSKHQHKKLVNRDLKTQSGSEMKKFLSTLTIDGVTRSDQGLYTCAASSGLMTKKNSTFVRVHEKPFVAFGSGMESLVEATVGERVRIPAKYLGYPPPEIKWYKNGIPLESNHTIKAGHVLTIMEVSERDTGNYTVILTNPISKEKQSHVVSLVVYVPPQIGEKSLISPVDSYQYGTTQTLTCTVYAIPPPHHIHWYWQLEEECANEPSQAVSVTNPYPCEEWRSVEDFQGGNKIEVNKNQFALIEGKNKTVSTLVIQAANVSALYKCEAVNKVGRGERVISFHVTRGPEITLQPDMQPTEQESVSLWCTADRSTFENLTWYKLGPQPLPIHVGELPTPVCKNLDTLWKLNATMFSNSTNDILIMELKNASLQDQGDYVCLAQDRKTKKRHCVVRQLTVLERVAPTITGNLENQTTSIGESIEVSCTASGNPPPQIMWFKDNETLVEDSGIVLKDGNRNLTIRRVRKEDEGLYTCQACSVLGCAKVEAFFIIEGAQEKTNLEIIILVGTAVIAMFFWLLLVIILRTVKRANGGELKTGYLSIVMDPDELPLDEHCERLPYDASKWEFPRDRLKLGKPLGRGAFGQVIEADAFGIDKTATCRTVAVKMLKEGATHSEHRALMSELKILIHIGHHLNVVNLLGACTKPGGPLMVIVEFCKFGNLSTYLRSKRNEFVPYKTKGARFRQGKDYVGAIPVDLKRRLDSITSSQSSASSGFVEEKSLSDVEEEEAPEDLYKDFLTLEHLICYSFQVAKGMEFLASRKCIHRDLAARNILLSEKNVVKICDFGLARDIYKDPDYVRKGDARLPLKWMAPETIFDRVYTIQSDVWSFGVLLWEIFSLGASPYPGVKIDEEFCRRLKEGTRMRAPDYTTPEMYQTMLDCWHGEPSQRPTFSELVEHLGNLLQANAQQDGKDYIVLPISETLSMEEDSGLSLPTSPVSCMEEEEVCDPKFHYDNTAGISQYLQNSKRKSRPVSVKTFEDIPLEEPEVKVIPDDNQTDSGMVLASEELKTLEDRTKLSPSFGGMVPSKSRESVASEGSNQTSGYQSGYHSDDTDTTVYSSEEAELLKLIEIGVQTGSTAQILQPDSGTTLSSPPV

## Cn1cc(-c2nccc(Oc3ccc(NC(=O)Nc4ccc(Cl)c(C(F)(F)F)c4)cc3)c2F)cn1 [Example 1, 1-(4-chloro-3-(trifluoromethyl)phenyl)-3-(4-(3-fluoro-2-(1-methyl-4-pyrazolyl)-pyridin-4-yl-oxy)phenyl)urea]
[1]; ATP 5 μM, 20 minutes, room temperature
  IC50: 28.6 nM
[1]; VEGFR2 kinase
  inhibitory activity as fold of that of Comparative compound 2: 6.6 fold
  inhibitory activity as fold of that of Sorafenib: 3.13 fold
[1]; VEGFR2 kinase, ratio of IC50
  IC50 value as fold of that of Comparative compound 2: 0.15 fold
  IC50 value as fold of that of Sorafenib (free base): 0.32 fold
[2]
  IC50: 7140 nM
[3]
  IC50: 4940 nM
[4]
  IC50: 2770 nM
[5]
  IC50: 2430 nM
[6]; Homo sapiens, MDA-MB-231, 72 hours, CCK-8
  IC50: 2820 nM
[6]; MDA-MB-231 cell line
  IC50 as fold of that of Sorafenib: 0.28 fold
[7]; PO 5 mg/kg vs IV 1 mg/kg, read-out: F (oral bioavailability)
  bioavailability: 90.3%
[7]; PO 5 mg/kg, average of three mice, read-out: AUClast (area under the curve)
  AUC(0-t): 39600 ng·h/mL
[7]; PO 5 mg/kg, average of three mice, read-out: Cmax (peak concentration)
  Cmax: 1910 ng/mL
[8]
  IC50: 721 nM
[9]
  IC50: 17100 nM
[10]
  IC50: 2040 nM
[11]
  IC50: 939 nM
